From USRE46511E1, “Fused pyrimidine derivatives for inhibition of tyrosine kinase activity” (HANMI SCIENCE CO., LTD., priority 2010, dated 2017)
Like-named read-outs stand apart in the source and are kept apart here.

Tests used:
Type in all cases: cell-based
A431 (EGFR WT) = experiment: Inhibition test for growth of cancer cell expressing EGFR (SRB), A431; settings: Homo sapiens, read-out: GI50 A431 EGFR WT;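 note: cells in 96-well plates exposed to tenfold serial dilutions from 100 µM down to 10^−6 µM, DMSO under 1%, SRB staining read as absorbance at 540 nm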
Protocol: (§1) A431 cell line was incubated in a high-glucose DMEM (Dulbecco's Modified Eagle's Medium) supplemented with 10% fetal bovine serum (FBS) and 1% penicillin/streptomycin (Gibco BRL), and HCC827 and NCI-H1975 cell lines were incubated in an RPMI medium supplemented with 10% FBS, 1% penicillin/streptomycin and 1% sodium pyruvate.
(§2) The cancer cell lines stored in a liquid nitrogen tank were each quickly thawed at 37° C., and centrifuged to remove the medium. The resulting cell pellet was mixed with a culture medium, incubated in a culture flask at 37° C. under 5% CO2 for 2 to 3 days, and the medium was removed. The remaining cells were washed with DPBS (Dulbecco's Phosphate Buffered Saline) and separated from the flask by using Tripsin-EDTA. […] 100 μl of the diluted cell solution was added to each well of a 96-well plate, and incubated at 37° C. under 5% CO2 for 1 day.
(§3) In case that the test compound was not soluble in DMSO, 1% HCl was added thereto and treated in a 40° C. water bath for 30 mins until a complete dissolution was attained. The DMSO solution containing test compound was diluted with a culture medium to a final concentration of 100 μM, and then diluted 10 times serially to 10^−6 μM (a final concentration of DMSO was less than 1%).
(§4) The medium was removed from each well of the 96-well plate. And then, 100 μl of a test compound solution was added to each well holding the cultured cells, and the plate was incubated at 37° C. under 5% CO2 for 72 hours (except that NCI-H1975 cells were incubated for 48 hours). After removing the medium from the plate, 50 μA of 10% trichloroacetic acid was added to each well, and the plate was kept at 4° C. for 1 hour to fix the cells to the bottom of the plate. The added 10% trichloroacetic acid solution was removed from each well, the plate was dried, 100 μA of an SRB (Sulforhodamine-B) dye solution at a concentration of 0.4% dissolved in 1% acetic acid was added thereto, and the resulting mixture was reacted for 10 mins at room temperature. After removing the dye solution, the plate was washed with water, and well dried. When the dye solution was not effectively removed by water, 1% acetic acid was used. 150 μA of 10 mM trisma base was added to each well, and the absorbance at 540 nm wavelength was determined with a microplate reader.

[1] = tested on: HCC827 (EGFR DelE746_A750); experiment: Inhibition test for growth of cancer cell expressing EGFR (SRB), HCC827; settings: Homo sapiens, HCC827, 72 h, read-out: GI50 HCC827 EGFR DelE746_A750;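 note: cells in 96-well plates exposed to tenfold serial dilutions from 100 µM, fixed with trichloroacetic acid, SRB-stained, absorbance read at 540 nm, DMSO under 1%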
Protocol: as §1, §2, §3, §4

[2] = tested on: NCI-H1975 (EGFR L858R/T790M); experiment: Inhibition test for growth of cancer cell expressing EGFR (MTS), NCI-H1975; settings: Homo sapiens, read-out: GI50 NCI-H1975 EGFR L858R/T790M
Protocol: as §1, §2, §3, §4

[3] = A-431, A431 cells, 72 hours, SRB

| Compound | GI50 (A431 (EGFR WT); [3]) | GI50 ([1]; HCC827 cells, 72 hours, SRB) | GI50 ([2]; NCI-H1975 cells, 48 hours, MTS) | GI50 (A431 (EGFR WT); A-431, 72 h) | GI50 [1] | GI50 ([2]; NCI-H1975, 48 h) |
| --- | --- | --- | --- | --- | --- | --- |
| C=CC(=O)Nc1cccc(Oc2nc(Nc3ccc(N4CCN(C)CC4)c(C)c3)nc3ccsc23)c1 [Example 8] | > 1000 nM | < 50 nM | < 50 nM | – | – | – |
| C=CC(=O)Nc1cccc(Oc2nc(Nc3ccc(N4CCN(CC)CC4)cc3)nc3ccsc23)c1 [Example 10] | 100 to 1000 nM | < 50 nM | < 50 nM | – | – | – |
| C=CC(=O)Nc1cccc(Oc2nc(Nc3ccc(N4CCN(C5CCN(C)CC5)CC4)cc3)nc3ccsc23)c1 [Example 26] | > 1000 nM | < 50 nM | < 50 nM | – | – | – |
| C=CC(=O)Nc1cccc(Oc2nc(Nc3ccc(N4CC[S+]([O-])CC4)cc3)nc3ccsc23)c1 [Example 31] | > 1000 nM | < 50 nM | < 50 nM | – | – | – |
| C=CC(=O)Nc1cccc(Oc2nc(Nc3ccc(N4CCS(=O)(=O)CC4)cc3)nc3ccsc23)c1 [Example 32] | > 1000 nM | < 50 nM | < 50 nM | – | – | – |
| C=CC(=O)Nc1cccc(Oc2nc(Nc3ccc(N4CCCCC4)cc3)nc3ccsc23)c1 [Example 37] | > 1000 nM | 100 to 1000 nM | < 50 nM | – | – | – |
| C=CC(=O)Nc1cccc(Oc2nc(Nc3ccc(OCCN4CCOCC4)cc3)nc3ccsc23)c1 [Example 65] | > 1000 nM | < 50 nM | < 50 nM | – | – | – |
| C=CC(=O)Nc1cccc(Oc2nc(Nc3ccc(S(=O)(=O)N4CCN(CC)CC4)cc3)nc3ccsc23)c1 [Example 76] | > 1000 nM | < 50 nM | 50 to 100 nM | – | – | – |
| C=CC(=O)Nc1cccc(Oc2nc(Nc3ccc(C(=O)N4CCN(CC)CC4)cc3)nc3ccsc23)c1 [Example 90] | > 1000 nM | < 50 nM | < 50 nM | – | – | – |
| C=CC(=O)Nc1cccc(Oc2nc(Nc3ccc(C[S+](C)[O-])cc3)nc3ccsc23)c1 (stereo not drawn) [Example 94] | > 1000 nM | < 50 nM | < 50 nM | – | – | – |
| C=CC(=O)Nc1cccc(Oc2nc(Nc3ccc(CCN4CCN(S(=O)(=O)C=C)CC4)cc3)nc3ccsc23)c1 [Example 100] | > 1000 nM | < 50 nM | < 50 nM | – | – | – |
| C=CC(=O)Nc1cccc(Oc2nc(Nc3ccc4c(c3)NCCOC4)nc3ccsc23)c1 [Example 107] | > 1000 nM | < 50 nM | < 50 nM | – | – | – |
| C=CC(=O)Nc1cccc(Oc2nc(Nc3ccc4c(c3)CCN4C(=O)CN(C)C)nc3ccsc23)c1 [Example 109] | > 1000 nM | < 50 nM | < 50 nM | – | – | – |
| C=CC(=O)Nc1cccc(Oc2nc(Nc3ccc(N4CCN(S(C)(=O)=O)CC4)c(F)c3)nc3ccsc23)c1 [Example 120] | > 1000 nM | < 50 nM | < 50 nM | – | – | – |
| C=CC(=O)Nc1cccc(Oc2nc(Nc3ccc(C4CCCN(C)C4)c(F)c3)nc3ccsc23)c1 (stereo not drawn) [Example 128] | > 1000 nM | < 50 nM | < 50 nM | – | – | – |
| C=CC(=O)Nc1ccc(F)c(Oc2nc(Nc3ccc(N4CCN(C)CC4)cc3)nc3ccsc23)c1 [Example 165] | > 1000 nM | < 50 nM | < 50 nM | – | – | – |
| C=CC(=O)Nc1cccc(Oc2nc(Nc3ccc(N4CCN(C)CC4)cn3)nc3ccsc23)c1 [Example 167, N-(3-(2-(5-(4-methylpiperazin-1-yl)piridin-2-ylamino)thieno[3,2-d]pyrimidin-4-yloxy)phenyl)acrylamide] | > 1000 nM | < 50 nM | < 50 nM | – | – | – |
| C=CC(=O)Nc1cccc(Oc2nc(Nc3ccc(C(C)N4CCN(CC)CC4)cc3)nc3ccsc23)c1 (stereo not drawn) [Example 184] | > 1000 nM | < 50 nM | < 50 nM | – | – | – |
| C=CC(=O)Nc1cccc(Oc2nc(Nc3ccc(CN4CCN(CC5CC5)CC4)cc3)nc3ccsc23)c1 [Example 185] | > 1000 nM | < 50 nM | < 50 nM | – | – | – |
| C=CC(=O)Nc1cccc(Oc2nc(Nc3ccc(CP(=O)(OC)OC)cc3)nc3ccsc23)c1 [Example 189] | – | – | – | > 1000 nM | < 50 nM | < 50 nM |
| C=CC(=O)Nc1cccc(Nc2nc(Nc3ccc(C4CCN(C)CC4)cc3)nc3ccsc23)c1 [Example 209] | – | < 50 nM | < 50 nM | – | – | – |
| C=CC(=O)Nc1cccc(Nc2nc(Nc3ccc(C4CCCN(C)C4)cc3)nc3ccsc23)c1 (stereo not drawn) [Example 210] | – | < 50 nM | < 50 nM | – | – | – |
| C=CC(=O)Nc1cccc(Nc2nc(Nc3ccc(OCCN(C)C)cc3)nc3ccsc23)c1 [Example 211] | – | < 50 nM | < 50 nM | – | – | – |
| C=CC(=O)Nc1cccc(Nc2nc(Nc3ccc(CCN(C)C)cc3)nc3ccsc23)c1 [Example 213] | – | 50 to 100 nM | < 50 nM | – | – | – |
| C=CC(=O)Nc1cccc(Nc2nc(Nc3ccc(CN4CCCCC4)cc3)nc3ccsc23)c1 [Example 221] | – | < 50 nM | < 50 nM | – | – | – |
| C=CC(=O)Nc1cccc(Oc2nc(Nc3ccc(N4CCN(C)CC4)c(OC)c3)nc3ccoc23)c1 [Example 234] | > 1000 nM | < 50 nM | < 50 nM | – | – | – |
| C=CC(=O)Nc1cccc(Oc2nc(Nc3ccc(C4CCN(C)CC4)c(F)c3)nc3ccoc23)c1 [Example 235] | – | < 50 nM | < 50 nM | – | – | – |
| CS(=O)(=O)CCNCc1ccc(-c2ccc3ncnc(Nc4ccc(OCc5cccc(F)c5)c(Cl)c4)c3c2)o1 [Lapatinib, lapatinib, reference compound] | – | – | – | 50 to 100 nM | 100 to 1000 nM | > 1000 nM |

Now from value to molecule, other results behind:

| GI50 (A431 (EGFR WT); [3]) | GI50 ([1]; HCC827 cells, 72 hours, SRB) | GI50 ([2]; NCI-H1975 cells, 48 hours, MTS) | Compound | GI50 (A431 (EGFR WT); A-431, 72 h) | GI50 [1] | GI50 ([2]; NCI-H1975, 48 h) |
| --- | --- | --- | --- | --- | --- | --- |
| > 1000 nM | 50 to 100 nM | 50 to 100 nM | C=CC(=O)Nc1cccc(Oc2nc(Nc3ccc(N4CCN(C)CC4)cc3F)nc3ccsc23)c1 [Example 4] | – | – | – |
| 100 to 1000 nM | < 50 nM | < 50 nM | C=CC(=O)Nc1cccc(Oc2nc(Nc3ccc(N4CCN(C5CCCCC5)CC4)cc3)nc3ccsc23)c1 [Example 13] | – | – | – |
| > 1000 nM | 50 to 100 nM | < 50 nM | C=CC(=O)Nc1cccc(Oc2nc(Nc3ccc(N4CCN(S(C)(=O)=O)CC4)cc3)nc3ccsc23)c1 [Example 23] | – | – | – |
| > 1000 nM | < 50 nM | 50 to 100 nM | C=CC(=O)Nc1cccc(Oc2nc(Nc3ccc(N4CCN(S(=O)(=O)CC)CC4)cc3)nc3ccsc23)c1 [Example 24] | – | – | – |
| > 1000 nM | 100 to 1000 nM | < 50 nM | C=CC(=O)Nc1cccc(Oc2nc(Nc3ccc(N4CCSCC4)cc3)nc3ccsc23)c1 [Example 30] | – | – | – |
| > 1000 nM | < 50 nM | < 50 nM | C=CC(=O)Nc1cccc(Oc2nc(Nc3ccc(C4CCN(C)CC4)cc3)nc3ccsc23)c1 [Example 52] | – | – | – |
| > 1000 nM | < 50 nM | < 50 nM | C=CC(=O)Nc1cccc(Oc2nc(Nc3ccc(C4CCN(C(C)C)CC4)cc3)nc3ccsc23)c1 [Example 54] | – | – | – |
| > 1000 nM | < 50 nM | < 50 nM | C=CC(=O)Nc1cccc(Oc2nc(Nc3ccc(C(=O)NCCN4CCCC4)cc3)nc3ccsc23)c1 [Example 80] | – | – | – |
| > 1000 nM | < 50 nM | < 50 nM | C=CC(=O)Nc1cccc(Oc2nc(Nc3ccc(N4CCN(CC)CC4)cc3OC)nc3ccsc23)c1 [Example 112] | – | – | – |
| > 1000 nM | < 50 nM | 100 to 1000 nM | C=CC(=O)Nc1cccc(Oc2nc(Nc3ccc(N4CCNCC4)cc3)nc3ccsc23)c1 [Example 158, N-(3-(2-(4-(piperazin-1-yl)phenylamino)-thieno[3,2-d]pyrimidine-4-yloxy)-phenyl)-acrylamide] | – | – | – |
| > 1000 nM | < 50 nM | < 50 nM | C=CC(=O)Nc1cccc(Oc2nc(Nc3ccc(N4CCNCC4)c(Cl)c3)nc3ccsc23)c1 [Example 159] | – | – | – |
| > 1000 nM | < 50 nM | < 50 nM | C=CC(=O)Nc1cccc(Oc2nc(Nc3ccc(N4CCN(CC)CC4)cn3)nc3ccsc23)c1 [Example 168] | – | – | – |
| > 1000 nM | < 50 nM | < 50 nM | C=CC(=O)Nc1cccc(Oc2nc(Nc3ccc(CN4CCCC4)cc3)nc3ccsc23)c1 [Example 176] | – | – | – |
| > 1000 nM | < 50 nM | < 50 nM | C=CC(=O)Nc1cccc(Oc2nc(Nc3ccc(CN4CCCCC4)cc3)nc3ccsc23)c1 [Example 178] | – | – | – |
| > 1000 nM | < 50 nM | < 50 nM | C=CC(=O)Nc1cccc(Oc2nc(Nc3ccc(CN4CCN(C5CCN(C)CC5)CC4)cc3)nc3ccsc23)c1 [Example 186] | – | – | – |
| – | 50 to 100 nM | 50 to 100 nM | C=CC(=O)Nc1cccc(Nc2nc(Nc3ccc(OCCCN(C)C)cc3)nc3ccsc23)c1 [Example 212] | – | – | – |
| – | 50 to 100 nM | < 50 nM | C=CC(=O)Nc1cccc(Nc2nc(Nc3ccc(CCN4CCN(C)CC4)cc3)nc3ccsc23)c1 [Example 214] | – | – | – |
| – | < 50 nM | < 50 nM | C=CC(=O)Nc1cccc(Nc2nc(Nc3ccc(C4CCN(C)CC4)c(F)c3)nc3ccsc23)c1 [Example 216] | – | – | – |
| – | < 50 nM | 50 to 100 nM | C=CC(=O)Nc1cccc(Nc2nc(Nc3ccc(NC4CCN(C)CC4)c(F)c3)nc3ccsc23)c1 [Example 217] | – | – | – |
| > 1000 nM | < 50 nM | 50 to 100 nM | C=CC(=O)Nc1ccc(F)c(Nc2nc(Nc3ccc(N4CCN(C)CC4)cc3)nc3ccsc23)c1 [Example 218, N-(4-fluoro-3-(2-(4-(4-methyl-piperazin-1-yl)-phenylamino)-thieno[3,2-d]pyrimidin-4-ylamino)-phenyl)-acrylamide] | – | – | – |
| – | < 50 nM | < 50 nM | C=CC(=O)Nc1cccc(Sc2nc(Nc3ccc(N4CCOCC4)c(F)c3)nc3ccsc23)c1 [Example 224] | – | – | – |
| – | < 50 nM | < 50 nM | C=CC(=O)Nc1cccc(Sc2nc(Nc3ccc(C4CCN(C)CC4)c(F)c3)nc3ccsc23)c1 [Example 225] | – | – | – |
